The assay addresses Envelope glycoprotein gp160 (Human immunodeficiency virus 1, UniProt Q6QLK5). Description: inhibitors of HIV fusion peptide binding, primary screen, biochemical, uHTS, fluorescence dequenching (AID 1986).

We go through 1 compound from ChEMBL document CHEMBL1201862, “PubChem BioAssay data set” (2004).

Active and inactive are the calls of the source. Cut-off read from the data, not from the text of the source: actives have a measured IC50 and inactives only a lower limit.

Sequence of Envelope glycoprotein gp160 (Q6QLK5 whole entry, the tested form may be a part): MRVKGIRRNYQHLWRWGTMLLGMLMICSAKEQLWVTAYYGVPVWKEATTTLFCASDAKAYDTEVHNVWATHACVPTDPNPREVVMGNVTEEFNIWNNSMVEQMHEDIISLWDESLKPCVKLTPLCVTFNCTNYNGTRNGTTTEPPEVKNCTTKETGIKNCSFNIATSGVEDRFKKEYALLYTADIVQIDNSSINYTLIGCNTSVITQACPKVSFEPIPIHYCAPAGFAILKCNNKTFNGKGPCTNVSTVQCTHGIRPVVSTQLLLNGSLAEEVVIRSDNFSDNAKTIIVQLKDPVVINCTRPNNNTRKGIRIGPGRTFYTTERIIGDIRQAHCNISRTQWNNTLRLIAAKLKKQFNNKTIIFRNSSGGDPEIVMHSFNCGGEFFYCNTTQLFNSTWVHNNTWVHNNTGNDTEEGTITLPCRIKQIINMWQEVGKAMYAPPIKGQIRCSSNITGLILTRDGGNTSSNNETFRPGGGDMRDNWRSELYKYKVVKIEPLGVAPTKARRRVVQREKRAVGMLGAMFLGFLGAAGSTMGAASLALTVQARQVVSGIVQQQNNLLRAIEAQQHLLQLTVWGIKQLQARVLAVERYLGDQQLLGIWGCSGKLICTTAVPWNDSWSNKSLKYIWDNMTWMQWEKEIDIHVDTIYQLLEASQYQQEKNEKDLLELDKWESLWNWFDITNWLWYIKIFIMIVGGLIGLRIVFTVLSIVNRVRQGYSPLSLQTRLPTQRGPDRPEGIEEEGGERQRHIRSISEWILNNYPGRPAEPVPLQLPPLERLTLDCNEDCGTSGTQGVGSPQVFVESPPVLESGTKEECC

In general, IC50 refers to the concentration needed to halve the response being measured. As for `O=C(CN1C(=O)/C(=C2\SC(=S)N(CCS(=O)(=O)O)C2=O)c2ccccc21)Nc1cccc(Br)c1`, the IC50 is 9.81 µM (active).
